Source: patent US20080207521A1, “PEPTIDE LIGAND TO IMPAIR CANCER CELL MIGRATION” (priority 2005, published 2008)

What was measured:
Type in all cases: cell-based, human
DDR1 = assay: Collagen-induced DDR1 phosphorylation in Wnt-5a antisense HB2 cells (immunoprecipitation/Western blot); details: crude peptide (approximately 65% pure) 100 μM; 90 min on collagen I
Experimental: The phosphorylation status of DDR1 was analyzed as previously described (12), with the following modifications. After serum-depletion for 16 h, the cells were detached with Versene and then allowed to adhere to collagen I for 60 (MDA-MB-468) or 90 min (HB2) at 37° C. The experiments were terminated by lysing both adherent and non-adherent cells with a lysis buffer (50 mM Tris pH 7.4, 1% Triton-X, 5 mM EDTA, 5 mM EGTA, 50 mM NaCl, 10 μg/ml aprotinin, 2.5 mM benzamidine, 1 mM pefabloc, 1 μg/ml leupeptin and 1 mM Na3VO4). For immunoblotting an anti-DDR1 rabbit polyclonal Ab, sc-532 (Santa Cruz Biotech, Santa Cruz, Calif.) was used at a dilution of 1:10,000. The Ab recognizes DDR1b/c, which is essential because collagen only induces phosphorylation of the b or c isoforms of DDR1 in mammary epithelial cells (10).
Effects of crude peptides on collagen-induced DDR1 phosphorylation in Wnt-5a antisense HB2 cells. Single cells were allowed to adhere to collagen I-coated plates in the presence of the indicated crude peptide (100 μM). (A) Experiments performed in the presence of peptides 167-173. (B) Experiments performed in the presence of peptides 175-180. After 90 min the cells were lysed and DDR1 immunoprecipitated. Subsequently, the immunoprecipitates were subjected to Western blot analysis with an anti-phosphotyrosine Ab and then, after stripping, with an anti-DDR1 Ab to ascertain equal loading. The blots shown are representative of 3 separate experiments The diagrams show densitometric analysis of DDR1 phosphorylation, expressed as per cent of control.

[1] = system: Wnt-5a antisense HB2 cells; assay: Adhesion of Wnt-5a antisense HB2 cells to collagen I (MTS); details: for adhesion to collagen I, concentration-dependent analysis: 95% pure peptides, different concentrations
Experimental: The adhesion assay was carried out as previously described (12). Briefly, cells were serum-depleted for 16 h, detached with Versene and allowed to adhere as single cells to collagen I for 60 (MDA-MB-468) or 90 min (HB2) at 37° C. Non-adherent cells were removed by washing with PBS. The adherent cells were incubated with a (3-(4,5-dimethylthiazol-2-yl)-5-(3-carboxymethoxyphenyl)-2-(-4-sulfophenyl)-2H-tetrazolium, inner salt (MTS) dye reduction assay (Promega, Madison, Wis.) and absorbance was measured at 490 nm using a Fluostar microplate reader from BMG LabTechnologies (GmbH, Offenberg, Germany). In each experiment a single value was calculated based on the mean of adhesion from six separate wells after the adhesion to plastic alone had been subtracted. The CM used as a control in the adhesion assays was obtained from confluent Wnt-5a overexpressing HB2 cells (for experiments with Wnt-5a antisense HB2 cells) or Wnt-5a overexpressing MCF-7 cells (for MDA-MB-468 cells) stably transfected with a vector over-expressing Wnt5a. A collected CM was always used within three days.
To control the specificity of the CM, it was incubated with either the Wnt-5a or a control Ab for 45 min at 37° C. Subsequently 10 μl Protein A Sepharose was added for 30 min and after the protein A-bound antibodies were collected by centrifugation the remaining supernatants were used for the experiments.
Effects of crude peptides on adhesion of Wnt-5a antisense HB2 cells to collagen. (A) Single cells were allowed to adhere for 90 min in the absence or presence of the indicated crude peptides (100 μM). The amounts of adhesive cells were analyzed as described in the methods and the results are given as means±SEM of 7 separate experiments. (B) Adhesion of Wnt-5a antisense HB2 cells to collagen was analyzed after pre-treating the cells with an anti-[…]1-integrin Ab for 45 min before letting them adhere for 90 min in the absence or presence of peptides 171 or 175 (100 μM) or CM. The amounts of adhesive cells were analyzed as described in the methods and the results are given as means±SEM of 6 separate experiments (C) The diagram outlines a control of the presently used CM. The cells were allowed to adhere to collagen I-coated wells in the absence or presence of normal CM or Wnt-5a depleted CM. The amounts of adhesive cells were analyzed as described in the methods and the results are given as means±SEM of 6 separate experiments. Ns=not significant, * p<0.05, ** p<0.01 and *** p<0.001.
(§1) Effects of the selected and pure peptides on the ability of Wnt-5a antisense HB2 cells to adhere and migrate. (A-E) The ability of the cells to adhere to collagen type I-coated wells was analyzed as previously described for FIG. 2 in the absence or presence of different concentrations of the indicated peptide. (F) Effect of the indicated peptides on migration of Wnt-5a antisense HB2 in a transwell migration assay. The cells were allowed to migrate for 18 h in the absence or presence of 100 μM peptide or 0.4 μg/ml of recombinant Wnt5a. The data are given as means±SEM of 6-7 separate experiments, each performed in triplicate. * p<0.05 and ** p<0.01.

[2] = system: Wnt-5a antisense HB2 cells; assay: Migration of Wnt-5a antisense HB2 cells in modified Boyden chamber; details: 95% pure peptide 100 μM; 18 h
Experimental: Cell migration analyses were performed in a modified Boyden chamber with a polycarbonate membrane (10 μm thick with a porous diameter of 8.0 μm) separating the two chambers (Transwell®; Costar, Cambridge, Mass.). As indicated in some experiments the membranes were coated with collagen by adding collagen-I (10 μg/ml) diluted in 0.25% acetic acid to the upper chamber for 1 h at 37° C., after which it was washed three times with PBS. Each experiment was initiated by detaching the cells by Versene treatment for 10-20 min at 37° C., washed, and re-suspended as a single cell suspension in serum-free DMEM medium supplemented with 0.5% BSA. Together with the indicated agonist a 0.2 ml cell suspension (containing 25,000 MDA-MB-468 or 50,000 HB2 cells) was then added to the upper chamber of the transwell. The lower chamber was filled with 0.6 ml serum-free but BSA-containing DMEM medium supplemented with 1 ng/ml of the chemoattractant IGF-I. As a control, IGF-I was excluded in some wells in each separate experiment. The cells were allowed to migrate in the Boyden chamber for 18 h at 37° C. in a humidified atmosphere of 95% air and 5% CO2. The experiments were terminated by removing the non-migratory cells with a cotton-tipped applicator from the upper surface of the membranes. The remaining cells on the lower surface that had migrated through the membrane were stained for 20 min with 0.5% crystal violet diluted in 20% methanol/80% water. After washing the membranes the number of stained cells per membrane and well was counted in an inverted microscope. The value from each separate experiment represents the median value of three individual wells.
as §1

| Sequence | DDR1 phosphorylation (DDR1) | adhesion to collagen I, concentration-dependent analysis [1] | adhesion to collagen after pre-treatment with blocking anti-β1-integrin Ab ([1]; anti-β1-integrin Ab 45 min at 37° C., peptide 100 μM, 90 min) | adhesion to collagen I ([1]; crude peptide (65% pure) 100 μM, 90 min) | migration [2] |
| --- | --- | --- | --- | --- | --- |
| SQLAGLSQGQKKL [peptide 171, Wnt-5a aa 55-67; negative control] | no DDR1 phosphorylation | lost or less consistent | most likely β1-integrin-dependent | significant effect on adhesion | no effect on migration |
| NKTSEGMDGCEL (Human) [peptide 175, Wnt-5a aa 311-322] | significant DDR1 phosphorylation | most effective |  |  | effectively decreased the migration |
| ADFRKVGDALKEKYD [peptide 169, Wnt-5a aa 242-256] | significant DDR1 phosphorylation | increased when tested at higher purity |  |  | effectively decreased the migration |
